In patent US20120232000A1, “METHODS AND COMPOSITIONS FOR PROMOTING REGENERATION BY INCREASING INTRACELLULAR SODIUM CONCENTRATION” (priority 2009, published 2012):
“Also recorded” adds a separate entry of the source.

Columns and labels:
Assay type in all cases: in vivo, Xenopus laevis
NaV1.2 protein = test: Immunohistochemistry of NaV1.2 protein in the regeneration bud
Source text: In order to better understand the role of NaV1.2, we examined its potential relationships with known regenerative pathways. First, we investigated the pathways potentially regulating NaV1.2 expression. […] However, in amputated tails treated with Concanamycin, a specific inhibitor of V-ATPase activity (Huss et al., 2002) that blocks regeneration (Adams et al., 2007), the expression of NaV1.2 protein was absent at 24 and 48 hpa (FIGS. 4A-4C). […] We next examined NaV1.2 protein expression during the refractory stages, an endogenous period during development in which tadpoles temporarily lose the ability of caudal regeneration (Beck et al., 2003). NaV1.2 protein was not detected in 24-hour tail stumps amputated during this non-regenerative state (FIG. 4D).
(§1) Xenopus embryos were fixed overnight in MEMFA, heated for 2 hrs at 65° C. in 50% formamide (to inactivate endogenous alkaline phosphatases), permeabilized in PBTr+0.1% Triton X100 for 30 min, and processed for immunohistochemistry using alkaline phosphatase secondary antibody (Levin, 2004) until signal was optimal and background minimal (usually 12 hrs). The expression profiles represent consensus patterns obtained from the analysis of 8-12 embryos at each stage. Pan-anti-NaV (Sigma S-8809), anti-acetylated a-tubulin (Sigma #T6793), and anti-phospho-H3 (Upstate #05-598) antibodies were used at 1:1000.

Msx1 = test: RNA in situ hybridization of Msx1 in the regeneration bud; conditions: 48 hpa, MS-222 after amputation
Source text: (§2) RNA expression of Notch, Msx1, and BMP components can be observed after 24 hpa in the regenerating tail tissues. We performed in situ hybridization using gene-specific RNA probes to examine the expression patterns of Notch and Msx1 in the regeneration bud after treatment with MS-222. In wild-type regeneration buds at 48 hpa, Notch1 is normally expressed in the neural ampulla and in the mesenchymal region of the regeneration bud (FIGS. 4F and 4H). […] At 48 hpa, Msx1 was expressed in the neural ampulla and at the epithelial edge of the regenerating tail tip (FIGS. 4J and 4L). When NaV activity was blocked, Msx1 expression was abolished (FIGS. 4K and 4M).
(§3) Embryos were fixed in MEMFA (Sive et al., 2000) and dehydrated in methanol. In situ hybridization was carried out according to standard protocols (Harland, 1991) with probes to: NaV1.2 (AY121368), NaV1.5 (Armisen et al., 2002), Notch1 (Coffman et al., 1990), and Msx1 (Feledy et al., 1999).

[1] = tested on: H3P-positive (mitotic) cells; test: Anti-H3P immunohistochemistry of mitotic cells in amputated tails; conditions: 48 hpa, versus control siblings
Source text: To understand the cellular basis for regenerative failure in animals with loss of NaV1.2 function, we examined proliferation in MS-222-treated amputated tails. During development, mitotic cells are observed to be randomly located in the growing tail. […]. We quantified the number and distribution of proliferating cells in regenerating tails at 48 hpa using an antibody to phosphorylated Histone 3B (H3P), a marker of the G2/M transition of the cell cycle that identifies mitotic cells in Xenopus and many other systems (Adams et al., 2007; Saka and Smith, 2001). […]. Many H3P-positive cells are seen in the wild-type regeneration bud (FIG. 3E) but very few are detected in MS-222 treated buds (FIG. 3F).
as §1

[2] = tested on: Xenopus tail regeneration; test: Tail regeneration assay, tails amputated at stages 40-41, scored at 7 days; conditions: for tail regeneration: treatment after amputation at st. 40, 7 days
Method: Xenopus laevis larvae were cultured using standard protocols approved for the care of experimental organisms. Tails at stages 40-41, or stages 45-47 (refractory period) (Nieuwkoop and Faber, 1967) were amputated under a dissecting microscope using a scalpel blade at the midpoint between the anus and the tip. Tadpoles were cultured in (0.1×MMR±inhibitor) at 22° C. for 7 days and scored for tail regeneration. Drug experiments were carried out at least in duplicate.
To quantify and compare regeneration efficiency of tadpoles treated with different reagents, the “Regeneration Index” (RI) was determined. The RI evaluates the efficiency of regeneration for each treatment and allows for comparison of the effect of various treatments to controls.
Individual animals for each specific treatment were each scored as follows:
Full: complete regeneration (indistinguishable from uncut controls).
Good: robust regeneration with minor defects (e.g., missing fin, curved axis).
Poor: poor regeneration (hypomorphic/defective regenerates).
For each treatment, the percentage of regenerates belonging to each category were calculated, and then multiplied by 3, 2, 1 or 0, respectively for, Full, Good, Poor and None. The resulting R1 for each condition tested ranges from 0 to 300, with 0 corresponding to no regeneration, and 300 for complete regeneration.
Xenopus laevis larvae were cultured via approved protocols (IACUC #M2008-08). Tails at stages 40-41, or stages 45-47 (refractory period) (Nieuwkoop and Faber, 1967) were amputated at the midpoint between the anus and the tip. Tadpoles were cultured in (0.1×MMR±reagent) at 22° C. for 7 days and scored for tail regeneration. […]

axons of the regenerate = test: Acetylated α-tubulin staining of axons in tail regenerates; conditions: 72 hpa (3-day) tails, MS-222 treated
Source text: It has long been known that regenerative growth requires proper innervation (Singer, 1952, 1965). Thus, we asked whether NaV1.2 regulates neural regeneration by examining the neuronal pattern in the amputated tail of tadpoles treated with MS-222. In normal 3-day old tail regenerates, axons appear in bundles that grow and concentrate to the end of the regenerate, in a direction parallel to the anterior-posterior axis (FIG. 3G).
as §1

BMP2 = test: Expression level of BMP2 in the regeneration bud (data not shown); conditions: in the presence of MS-222, data not shown
Source text: as §2

regeneration bud = test: Apoptosis in the regeneration bud (data not shown); conditions: MS-222 after tail amputation
Source text: (§4) To characterize the temporal requirement of NaV1.2 function during regeneration, we looked to utilize pharmacological inhibitors of NaV1.2 that will enable us to vary the timing of the functional blockade. First, we determined whether chemical inhibition of NaV1.2 activity recapitulates its loss-of-function phenotype during regeneration. MS-222 (also known as tricaine) is a well-known inhibitor of VGSCs (Hedrick and Winmill, 2003) that blocks inward Na^+ currents (Frazier and Narahashi, 1975). […]. […] Importantly, the μM concentrations used for the tail assays were approximately ten-fold lower than what is usually used for amphibian anesthesia (generally in the mM range). Similar to the NaV1.2 RNAi experiment, the overall development and movement of the animals were normal during pharmacological treatment, and had no effect on primary tail formation during early embryogenesis. We conclude that NaV1.2 function is specifically required for regeneration, and that both pharmacological and molecular loss-of-function to selectively reveal the importance of NaV1.2.

BMP4 = test: Expression level of BMP4 in the regeneration bud (data not shown); conditions: in the presence of MS-222, data not shown
Source text: as §2

Notch1 = test: RNA in situ hybridization of Notch1 in the regeneration bud; conditions: 48 hpa, MS-222 after amputation
Source text: as §2, §3

[3] = tested on: Na^+ influx into the regeneration bud; test: Imaging of sodium flux with CoroNa Green indicator dye
Method: NaV1.2 is a membrane-bound Na^+ transporter that regulates the influx of Na^+ into cells (Yu and Catterall, 2003). Thus, we examined the functional consequences of Na^+ transport in regeneration using MS-222. […] In intact tails, a few randomly distributed cells appear positive for the CoroNa Green signal relative to the majority of the tail population (FIG. 3A). […] When the amputated tails were treated with the NaV inhibitor, MS-222, the CoroNa Green signal was abolished (FIG. 3C, p<0.02), confirming that inhibition of NaV1.2 function abrogates Na^+ influx into the bud.
(§5) At 23 hpa, tadpoles were incubated in 90 μM of CoroNa Green indicator dye (Invitrogen) in 0.1×MMR for 45 minutes and washed twice in 0.1×MMR+30 uM BTS (to immobilize tadpole movement). At 24 hpa, the CoroNa Green signal was excited at […] and fluorescence emission data was collected at […]. Data was analyzed using IPLab software. For induction of Na^+ current, 0.1×MMR was supplemented with sodium gluconate (Sigma) to increase the Na^+ concentration to 90 mM. For refractory period analysis, tails were amputated at st. 47, at 18 hpa, and animals were treated with or without 90 mM Na^+ and 20 μM monensin (Sigma) in 0.1×MMR with 90 μM CoroNa Green for 45 minutes and washed twice in 0.1×MMR+50 uM BTS. Imaging of Vmem using DiBAC4(3) (Invitrogen) was performed exactly as described in (Adams et al., 2007).

Xenopus tadpoles = test: Observation of overall development and movement of treated animals; conditions: during pharmacological treatment in the tail assay
Source text: as §4

Delta = test: Expression level of Delta in the regeneration bud (data not shown); conditions: in the presence of MS-222, data not shown
[4] = tested on: membrane voltage of regeneration bud cells; test: Imaging of membrane voltage with the voltage dye DiBAC4(3); conditions: 24 hpa, versus control
Source text: To gain a detailed mechanistic understanding of NaV1.2 activity, we examined the consequences of modulating Na^+ ion transport in the regenerating tail. During development, the intact tail is hyper-polarized with a few depolarized cells that are randomly distributed (Adams et al., 2007). However, after tail amputation, the presumptive regeneration bud becomes highly depolarized. […]. If the bud is polarized at this timepoint, then regeneration proceeds normally; if the bud remains depolarized (as when V-ATPase is inactivated, either during the refractory period or by Concanamycin), then regeneration fails. Because VGSC activity is also a well-known major determinant of a cell's membrane potential level, we hypothesized that loss of NaV1.2 activity could alter the membrane voltage state of the regeneration buds at 24 hpa.
as §5, with “47, at 18 hpa, and animals were treated with or without 90 mM Na^+ and 20 μM monensin (Sigma) in 0.1×MMR with 90 μM CoroNa Green for 45 minutes and washed twice in 0.1×MMR+50 uM BTS. Imaging of Vmem using DiBAC4(3) (Invitrogen) was performed exactly as described in (Adams et al., 2007).” left out

[5] = tested on: Xenopus tail regeneration during the refractory period; test: Tail regeneration assay, tails amputated during the refractory period (stages 45-47)
[6] = 24 hpa regeneration bud, MS-222 treated

C/C=C/[C@H]1O[C@@](O)([C@@H](C)[C@H](O)[C@H](C)[C@H]2OC(=O)/C(OC)=C/C(C)=C/[C@@H](C)[C@@H](O)[C@@H](CC)[C@@H](O)[C@H](C)C/C(C)=C/C=C/[C@@H]2OC)C[C@@H](O)[C@@H]1C [Concanamycin]
NaV1.2 protein expression in the regeneration bud (NaV1.2 protein; 24 hpa): absent | NaV1.2 protein expression in the regeneration bud (NaV1.2 protein; 48 hpa): absent

CCOC(=O)c1cccc(N)c1.CS(=O)(=O)O [MS-222]
Msx1 RNA expression (Msx1): abolished; also recorded: absent | decrease in the number of mitotic cells in the regeneration bud region [1]: 90% | Regeneration Index (RI) ([2]; MS-222 (250 μM per FIG. 2B) immediately after tail amputation, scored at 7 days, RI 0-300, controls RI=265): 62 | effect on regeneration ([2]; MS-222 added at 48 hpa, after regenerative outgrowth has begun): no effect | tails that failed to regenerate ([2]; MS-222 for the first 48 hpa): 78% | tadpoles in which tail regeneration was prevented ([2]; MS-222 for the first 24 hours post amputation): 45% | tails with inhibited regeneration ([2]; MS-222 through the entire 7 days of the assay): 82% | tail regeneration [2]: failed to regenerate; also recorded: inhibition of regeneration is dosage-dependent | axon pattern and quantity in the regenerate (axons of the regenerate): axons to extend circumferentially along the edge of the regeneration bud; also recorded: overall quantity of neurons appeared to be reduced | level of BMP2 (BMP2): greatly reduced | apoptosis in the bud (regeneration bud): did not induce significant apoptosis | level of BMP4 (BMP4): greatly reduced | Notch1 RNA expression (Notch1): greatly reduced; also recorded: greatly down-regulated and mis-localized | CoroNa Green signal / Na^+ entry into the bud [3, 6]: abolished; also recorded: blocks Na^+ entry into the bud | decrease in CoroNa Green signal versus control buds [3, 6]: 70% | overall development and movement of the animals (Xenopus tadpoles): normal | level of Delta (Delta): greatly reduced | change of membrane voltage in regeneration bud cells [4]: did not observe any changes in membrane voltage

CN[C@@H]1C[C@H]2O[C@@](C)([C@@H]1OC)n1c3ccccc3c3c4c(c5c6ccccc6n2c5c31)C(=O)NC4 [Staurosporine]
regenerative ability relative to controls ([2]; 10 nM STS on amputated tails): 28 % of controls | tail regeneration [2]: strong reduction | overall development and movement of the animals (Xenopus tadpoles): otherwise unaffected

CC[C@@]1([C@@H]2O[C@@H]([C@H]3O[C@@](O)(CO)[C@H](C)C[C@@H]3C)C[C@@H]2C)CC[C@H]([C@]2(C)CC[C@]3(C[C@H](O)[C@@H](C)[C@@H]([C@@H](C)[C@@H](OC)[C@H](C)C(=O)O)O3)O2)O1 [monensin]
Regeneration Index (RI) ([5]; 20 uM monensin in medium containing 90 mM Na^+ for one hour at 18 hpa, refractory controls 11.5, n=44): 59.1 | increase of regeneration over the control ([5]; 20 μM monensin with 90 mM Na^+, 1 hour at 18 hpa): 3 fold | tadpoles with induced regeneration ([5]; 20 μM monensin with 90 mM Na^+, 1 hour at 18 hpa, 7 dpa, controls 11%): 36% | regenerated tails showing good to full regeneration ([5]; 20 μM monensin with 90 mM Na^+, 1 hour at 18 hpa, share of the regenerating tails): 45% | regenerative ability ([5]; monensin alone, without high extracellular Na^+, data not shown): did not improve regenerative ability | CoroNa Green signal at the amputation site ([3]; refractory tails at 19 hpa, after one hour of 20 uM monensin in 90 mM Na^+ medium): strong CoroNa Green fluorescence; also recorded: significantly stronger CoroNa Green signal

insulin
animals showing good or full regeneration ([5]; insulin at 0 hours post amputation, assayed at 7 days, control 16%): 39% | Regeneration Index (RI) ([5]; insulin at 0 hours post amputation, assayed at 7 days, control RI=62, RI of 300 = full regeneration): 118
